US9504691B2, “Finafloxacin suspension compositions” (ALCON RESEARCH, LTD., priority 2012, dated 2016)
In brackets after ≈: the same amount, converted by molar mass.

What was measured:
[1] = system: Ciprofloxacin-Resistant S. aureus; assay: In vitro antimicrobial susceptibility (MIC), Ciprofloxacin-Resistant S. aureus; format: cell-based; conditions: 12 isolates; for MIC50 / MIC90: unit assumed; for MIC Range: in µg/mL (unit assumed)
Method: (§1) A finafloxacin solution composition at pH 5.8 and 7.3 was compared to ciprofloxacin and ofloxacin compositions using standard in vitro antimicrobial susceptibility tests (M07-08 Methods for Dilution Antimicrobial Susceptibility Tests for Bacteria that Grow Aerobically; Approved Standard-Eighth Edition (January 2009, Clinical and Laboratory Standards Institute), herein incorporated by reference). Minimum inhibitory concentrations (MIC50) were determined using organisms commonly found in otic and ophthalmic infections. The MIC50 was the lowest concentration of antibiotic that prevented growth of the test organism, as determined visually by a lack of turbidity.
(§2) The results of the experiment are presented below in TABLES 1-5. At acidic pH, finafloxacin generally had greater activity against both Gram-positive and Gram-negative organisms than the fluoroquinolones ciprofloxacin and ofloxacin, both of which are used for the treatment of otic infections. Higher activity under acidic conditions is important for an otic formulation since a low pH formulation is preferred to slow bacterial and fungal growth, as well as the fact the pH environment of the external ear canal is ˜pH 6.

[2] = system: Ciprofloxacin-Susceptible S. aureus; assay: In vitro antimicrobial susceptibility (MIC), Ciprofloxacin-Susceptible S. aureus; format: cell-based; conditions: 8 isolates; for MIC Range: in µg/mL (unit assumed)
Method: as §1, §2

[3] = system: Ciprofloxacin-Resistant P. aeruginosa; assay: In vitro antimicrobial susceptibility (MIC), Ciprofloxacin-Resistant P. aeruginosa; format: cell-based; conditions: 11 isolates; for MIC Range: in µg/mL (unit assumed)
Method: as §1, §2

[4] = system: Ciprofloxacin-Susceptible P. aeruginosa; assay: In vitro antimicrobial susceptibility (MIC), Ciprofloxacin-Susceptible P. aeruginosa; format: cell-based; conditions: 14 isolates; for MIC Range: in µg/mL (unit assumed)
Method: as §1, §2

E. coli = assay: In vitro antimicrobial susceptibility (MIC), E. coli; format: cell-based; conditions: 10 isolates
Method: as §1, §2

[5] = Stability studies of finafloxacin formulations; format: physicochemical; conditions: aqueous solutions at pH between 5 and 6
Method: Exploratory stability studies were conducted to physical and chemical stability characteristics of formulations of the present invention.

[6] = Stability of finafloxacin free base polymorphs at high temperatures; format: physicochemical; conditions: temperatures such as those encountered during heat sterilization; compared with forms B and C
From the text: A preferred form of finafloxacin for use in embodiments of the present invention is finafloxacin free base. At least three polymorphs of the finafloxacin free base have been identified (forms A, B, and C). […] The crystalline form of finafloxacin free base form A has an X-ray diffraction spectrum substantially the same as the X-ray powder diffraction spectrum shown in FIG. 1.

[7] = pH 5.8, in µg/mL (unit assumed)
[8] = pH 7.3, in µg/mL (unit assumed)

SMILES | MIC50 ([1]; pH 5.8) | MIC90 ([1]; pH 5.8) | MIC Range ([1]; pH 7.3) | MIC50 ([1]; pH 7.3) | MIC90 ([1]; pH 7.3) | MIC50 ([2]; pH 5.8) | MIC50 ([2]; pH 7.3) | MIC Range ([2]; pH 7.3) | MIC50 ([3]; pH 5.8) | MIC90 ([3]; pH 5.8) | MIC50 ([3]; pH 7.3) | MIC90 ([3]; pH 7.3) | MIC50 ([4]; pH 5.8) | MIC90 ([4]; pH 5.8) | MIC Range ([4]; pH 5.8) | MIC50 ([4]; pH 7.3) | MIC90 ([4]; pH 7.3) | MIC Range ([4]; pH 7.3) | MIC50 (E. coli; pH 5.8) | MIC90 (E. coli; [7]) | further results
O=C(O)c1cn(C2CC2)c2cc(N3CCNCC3)c(F)cc2c1=O [Ciprofloxacin, ciprofloxacin] | 128 µg/mL (≈ 386 µM) | > 256 µg/mL | 4-128 | 128 µg/mL (≈ 386 µM) | 128 µg/mL (≈ 386 µM) | 1 µg/mL (≈ 3.02 µM) | 0.25 µg/mL (≈ 0.754 µM) | 0.125-1 | 64 µg/mL (≈ 193 µM) | > 512 µg/mL | 16 µg/mL (≈ 48.3 µM) | 512 µg/mL (≈ 1550 µM) | 1 µg/mL (≈ 3.02 µM) | 8 µg/mL (≈ 24.1 µM) | 0.125-8 | 0.5 µg/mL (≈ 1.51 µM) | 2 µg/mL (≈ 6.04 µM) | 0.063-2 | 256 µg/mL (≈ 773 µM) | >1024 | MIC Range ([3]; pH 7.3): 4-512; MIC50 (E. coli; pH 7.3): 16 µg/mL (≈ 48.3 µM); MIC Range (E. coli; pH 7.3): ≦0.008-128; MIC90 (E. coli; [8]): 128
N#Cc1c(N2C[C@@H]3NCCO[C@H]3C2)c(F)cc2c(=O)c(C(=O)O)cn(C3CC3)c12 [Fina., 8-cyano-1-cyclopropyl-6-fluoro-7-[(4aS,7aS)-hexahydropyrrolo[3,4-b]-1,4-oxazin-6(2H)-yl]-1,4-dihydro-4-oxo-3-quinolinecarboxylic acid] | 4 µg/mL (≈ 10 µM) | 8 µg/mL (≈ 20.1 µM) | 2-16 | 16 µg/mL (≈ 40.2 µM) | 16 µg/mL (≈ 40.2 µM) | 0.016 µg/mL (≈ 0.0402 µM) | 0.125 µg/mL (≈ 0.314 µM) | 0.016-0.25 | 16 µg/mL (≈ 40.2 µM) | 512 µg/mL (≈ 1290 µM) | 512 µg/mL (≈ 1290 µM) | > 512 µg/mL | 1 µg/mL (≈ 2.51 µM) | 4 µg/mL (≈ 10 µM) | 0.25-4 | 4 µg/mL (≈ 10 µM) | 16 µg/mL (≈ 40.2 µM) | 2-16 | 4 µg/mL (≈ 10 µM) | 8 | MIC Range ([1]; pH 5.8): 0.5-8; MIC Range ([2]; pH 5.8): 0.008-0.125; MIC Range ([3]; pH 5.8): 2-512; MIC Range (E. coli; [7]): 0.0078-8; MIC50 (E. coli; pH 7.3): 32 µg/mL (≈ 80.3 µM); MIC90 (E. coli; [8]): 64; MIC Range (E. coli; [8]): 0.008-64; precipitate formation in stability studies [5]: precipitates form
CC1COc2c(N3CCN(C)CC3)c(F)cc3c(=O)c(C(=O)O)cn1c23 (stereo not drawn) [Ofloxacin, ofloxacin] | 64 µg/mL (≈ 177 µM) | > 512 µg/mL | 2-256 | 32 µg/mL (≈ 88.6 µM) | 256 µg/mL (≈ 708 µM) | 1 µg/mL (≈ 2.77 µM) | 0.25 µg/mL (≈ 0.692 µM) | 0.125-0.5 | 256 µg/mL (≈ 708 µM) | > 512 µg/mL | 64 µg/mL (≈ 177 µM) | > 512 µg/mL | 4 µg/mL (≈ 11.1 µM) | 32 µg/mL (≈ 88.6 µM) | 1-32 | 2 µg/mL (≈ 5.53 µM) | 4 µg/mL (≈ 11.1 µM) | 1-4 | 512 µg/mL (≈ 1420 µM) | 512 | MIC Range ([2]; pH 5.8): 0.5-64; MIC Range (E. coli; [7]): 0.25-512; MIC50 (E. coli; pH 7.3): 16 µg/mL (≈ 44.3 µM); MIC90 (E. coli; [8]): 16; MIC Range (E. coli; [8]): 0.016-16
N#Cc1c(N2C[C@@H]3NCCO[C@H]3C2)c(F)cc2c(=O)c(C(=O)O)cn(C3CC3)c12 [finafloxacin free base form A] | – | – | – | – | – | – | – | – | – | – | – | – | – | – | – | – | – | – | – | – | stability of polymorph at high temperatures [6]: most stable at high temperatures
